Results published in ChEMBL document CHEMBL1201862, “PubChem BioAssay data set” (2004).
The source made the active and inactive calls.

Key:
Aminopeptidase N = target: T1, Aminopeptidase N (Plasmodium falciparum FcB1/Columbia, UniProt O96935); assay: P. falciparum M1AAP inhibitors, biochemical, fluorogenic H-Leu-NHMec substrate, 1536-well (AID 1445); design: species or system Plasmodium falciparum 3D7, 3D7
T1 sequence (O96935 whole entry): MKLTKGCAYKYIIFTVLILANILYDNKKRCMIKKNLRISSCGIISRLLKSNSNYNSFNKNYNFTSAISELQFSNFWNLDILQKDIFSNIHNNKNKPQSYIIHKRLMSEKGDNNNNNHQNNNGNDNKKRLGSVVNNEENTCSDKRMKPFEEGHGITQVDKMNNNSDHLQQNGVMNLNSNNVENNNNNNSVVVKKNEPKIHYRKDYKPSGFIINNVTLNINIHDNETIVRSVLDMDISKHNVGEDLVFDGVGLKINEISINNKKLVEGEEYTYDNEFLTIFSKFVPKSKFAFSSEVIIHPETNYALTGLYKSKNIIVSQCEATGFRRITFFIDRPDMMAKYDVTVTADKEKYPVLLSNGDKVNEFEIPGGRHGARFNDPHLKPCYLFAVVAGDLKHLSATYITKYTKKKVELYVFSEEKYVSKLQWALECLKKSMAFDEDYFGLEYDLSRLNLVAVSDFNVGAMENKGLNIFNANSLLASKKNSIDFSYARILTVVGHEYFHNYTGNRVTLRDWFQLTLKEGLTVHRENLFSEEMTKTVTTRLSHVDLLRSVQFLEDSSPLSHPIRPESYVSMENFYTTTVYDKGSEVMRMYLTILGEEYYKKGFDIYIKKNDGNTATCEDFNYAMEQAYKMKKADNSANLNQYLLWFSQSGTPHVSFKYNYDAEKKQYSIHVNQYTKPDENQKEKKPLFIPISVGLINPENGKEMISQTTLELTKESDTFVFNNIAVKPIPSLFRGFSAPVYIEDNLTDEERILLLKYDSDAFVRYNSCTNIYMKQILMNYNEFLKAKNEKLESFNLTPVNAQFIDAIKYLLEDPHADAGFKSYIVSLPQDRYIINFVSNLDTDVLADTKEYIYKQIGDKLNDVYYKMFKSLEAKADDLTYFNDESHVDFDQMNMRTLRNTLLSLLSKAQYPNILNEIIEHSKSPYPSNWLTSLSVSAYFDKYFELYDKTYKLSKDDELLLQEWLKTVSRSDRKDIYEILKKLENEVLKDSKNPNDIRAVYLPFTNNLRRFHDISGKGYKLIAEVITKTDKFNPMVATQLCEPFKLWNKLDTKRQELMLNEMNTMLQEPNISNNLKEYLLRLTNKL

[1] = NIH-3T3 fibroblast cytotoxicity, dose response, cytotoxicity control, cell-based, fluorescence, Alamar Blue, secondary assay (AID 2327); assay type: functional;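 note: NIH-3T3 mouse fibroblasts cultured with fluconazole at 8 µg/mL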
[2] = HEp-2 cell cytotoxicity, dose response, cytotoxicity control for RSV inhibitor project, HTS (AID 2410); assay type: functional; conditions: human respiratory syncytial virus
[3] = tested on: Streptococcus sp. 'group A'; assay: growth inhibition of control SK(-) GAS strain, dose response, counter-screen for streptokinase expression inhibitor project, luminescence, kanamycin, BacTiterGlo, confirmation (AID 1900); assay type: functional, organism-based
cells [4] = assay type: functional, cell-based
[5] = C. albicans growth with fluconazole, confirmation, fluorescence, retest (AID 2467); assay type: functional, cell-based
cells [6] = assay type: functional, cell-based; remark: listed apart in the source
Streptococcus = assay: Group A Streptococcus viability loss, dose response, counter-screen for streptokinase expression inhibitor project, luminescence, BacTiterGlo (AID 1915); assay type: functional, organism-based;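 note: potency for reduction of bacterial viability or growth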
[7] = target: T2, Short transient receptor potential channel 4 (Mus musculus, UniProt Q9QUQ5); assay: mouse TRPC4 channel inhibitors, dose response, cell-based, HEK293 TRPC4/mu-opioid, Fluo-4 calcium (AID 434942); assay type: functional;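 note: potency of inhibitors blocking the TRPC4 calcium response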
T2 sequence (Q9QUQ5 whole entry): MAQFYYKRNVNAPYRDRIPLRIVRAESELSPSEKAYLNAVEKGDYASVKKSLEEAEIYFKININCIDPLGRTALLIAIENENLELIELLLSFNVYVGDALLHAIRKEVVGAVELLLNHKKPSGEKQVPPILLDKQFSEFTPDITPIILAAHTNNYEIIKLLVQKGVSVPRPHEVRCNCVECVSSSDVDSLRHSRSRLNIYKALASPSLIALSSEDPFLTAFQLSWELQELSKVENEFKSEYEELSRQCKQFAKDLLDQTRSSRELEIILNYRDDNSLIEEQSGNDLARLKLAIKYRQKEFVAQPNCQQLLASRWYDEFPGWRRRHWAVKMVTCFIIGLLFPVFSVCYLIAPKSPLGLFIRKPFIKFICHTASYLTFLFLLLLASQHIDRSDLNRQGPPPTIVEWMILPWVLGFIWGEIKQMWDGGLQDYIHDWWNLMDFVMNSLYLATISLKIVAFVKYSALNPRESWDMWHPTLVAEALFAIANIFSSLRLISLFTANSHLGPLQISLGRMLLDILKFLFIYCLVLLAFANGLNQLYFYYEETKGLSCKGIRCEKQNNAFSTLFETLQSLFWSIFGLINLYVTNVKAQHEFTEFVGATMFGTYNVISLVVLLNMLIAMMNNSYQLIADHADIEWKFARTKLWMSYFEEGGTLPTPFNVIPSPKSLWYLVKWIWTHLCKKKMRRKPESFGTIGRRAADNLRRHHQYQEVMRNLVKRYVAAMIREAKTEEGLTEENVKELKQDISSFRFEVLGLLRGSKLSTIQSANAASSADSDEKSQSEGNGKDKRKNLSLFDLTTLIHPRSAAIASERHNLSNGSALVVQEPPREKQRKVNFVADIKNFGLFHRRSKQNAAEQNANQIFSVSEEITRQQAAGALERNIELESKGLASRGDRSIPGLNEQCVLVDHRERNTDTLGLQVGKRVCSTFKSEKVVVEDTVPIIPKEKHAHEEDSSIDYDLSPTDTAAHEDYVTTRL

[8] = A Cell Based Secondary Assay To Explore Cytotoxicity of Compounds that Sensitize Mycobacterium Tuberculosis to Beta-Lactam Antibiotics.; assay type: functional
Protein skinhead-1 = target: T3, Protein skinhead-1 (Caenorhabditis elegans, UniProt P34707); assay type: functional
T3 sequence (P34707 whole entry): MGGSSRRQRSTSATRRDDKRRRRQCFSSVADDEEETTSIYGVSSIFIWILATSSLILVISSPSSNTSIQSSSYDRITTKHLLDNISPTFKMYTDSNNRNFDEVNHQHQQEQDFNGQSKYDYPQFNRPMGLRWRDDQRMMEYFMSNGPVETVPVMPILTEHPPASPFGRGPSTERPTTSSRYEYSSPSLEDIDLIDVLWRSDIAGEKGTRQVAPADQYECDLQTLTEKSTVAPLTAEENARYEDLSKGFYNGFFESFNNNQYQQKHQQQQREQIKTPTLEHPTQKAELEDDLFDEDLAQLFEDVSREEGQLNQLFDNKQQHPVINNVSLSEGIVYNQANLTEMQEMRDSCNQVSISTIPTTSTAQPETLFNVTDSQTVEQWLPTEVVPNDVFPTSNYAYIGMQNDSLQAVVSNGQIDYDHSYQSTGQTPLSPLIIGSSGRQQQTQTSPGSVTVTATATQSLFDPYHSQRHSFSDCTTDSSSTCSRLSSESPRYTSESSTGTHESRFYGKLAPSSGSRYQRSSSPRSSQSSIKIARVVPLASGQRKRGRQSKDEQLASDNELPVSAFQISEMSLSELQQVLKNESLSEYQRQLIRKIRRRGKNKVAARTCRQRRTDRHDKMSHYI

[9] = target: T4, DNA repair protein RAD52 homolog (Homo sapiens, UniProt P43351); assay type: functional, biochemical
T4 sequence (P43351 whole entry): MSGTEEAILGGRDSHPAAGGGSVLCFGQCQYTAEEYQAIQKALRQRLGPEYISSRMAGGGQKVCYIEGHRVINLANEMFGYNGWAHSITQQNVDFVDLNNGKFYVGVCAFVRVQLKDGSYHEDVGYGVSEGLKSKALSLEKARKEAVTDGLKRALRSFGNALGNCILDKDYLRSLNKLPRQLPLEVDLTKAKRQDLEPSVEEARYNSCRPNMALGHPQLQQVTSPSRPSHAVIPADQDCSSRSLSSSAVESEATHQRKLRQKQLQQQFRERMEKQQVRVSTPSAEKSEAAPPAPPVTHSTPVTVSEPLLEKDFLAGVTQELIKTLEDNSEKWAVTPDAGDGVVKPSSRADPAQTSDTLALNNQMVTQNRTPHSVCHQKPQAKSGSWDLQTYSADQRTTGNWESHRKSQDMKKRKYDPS

[10] = target: T5, Replicative DNA helicase DnaB (Mycobacterium tuberculosis, UniProt P9WMR3); assay: DnaB intein splicing inhibitors, dose response, biochemical, cell-free fluorescence (AID 449749); assay type: functional
T5 sequence (P9WMR3 whole entry): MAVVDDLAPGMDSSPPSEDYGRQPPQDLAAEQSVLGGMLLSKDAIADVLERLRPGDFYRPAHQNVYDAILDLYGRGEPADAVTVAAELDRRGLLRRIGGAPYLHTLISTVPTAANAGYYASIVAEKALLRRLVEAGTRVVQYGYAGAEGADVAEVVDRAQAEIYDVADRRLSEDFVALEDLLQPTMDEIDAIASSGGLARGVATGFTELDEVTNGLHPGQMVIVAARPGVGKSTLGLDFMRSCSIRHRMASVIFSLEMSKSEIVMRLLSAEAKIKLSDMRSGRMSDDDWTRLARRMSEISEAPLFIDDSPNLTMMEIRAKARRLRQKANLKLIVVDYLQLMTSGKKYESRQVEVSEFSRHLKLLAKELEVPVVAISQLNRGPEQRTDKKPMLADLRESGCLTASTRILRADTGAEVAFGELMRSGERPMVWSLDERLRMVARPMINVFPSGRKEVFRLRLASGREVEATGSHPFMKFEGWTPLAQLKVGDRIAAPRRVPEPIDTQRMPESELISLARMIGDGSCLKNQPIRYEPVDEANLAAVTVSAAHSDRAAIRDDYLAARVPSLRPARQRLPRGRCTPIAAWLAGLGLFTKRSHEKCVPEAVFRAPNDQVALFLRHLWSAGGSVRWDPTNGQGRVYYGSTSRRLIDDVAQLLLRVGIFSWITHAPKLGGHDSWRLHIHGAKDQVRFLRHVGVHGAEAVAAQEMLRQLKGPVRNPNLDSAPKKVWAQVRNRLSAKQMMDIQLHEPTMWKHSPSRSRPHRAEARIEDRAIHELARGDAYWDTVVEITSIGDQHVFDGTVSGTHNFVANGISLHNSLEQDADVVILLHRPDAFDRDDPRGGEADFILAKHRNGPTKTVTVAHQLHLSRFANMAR

Protein RecA = target: T6, Protein RecA (Mycobacterium tuberculosis, UniProt P9WHJ3); assay: Fluorescence Cell-Free Homogeneous Dose Retest to Identify Inhibitors of RecA-Intein Splicing Activity. [Related pubchem assays (depositor defined):AID2097, AID2223, AID489010, AID492950]; assay type: functional
T6 sequence (P9WHJ3 whole entry): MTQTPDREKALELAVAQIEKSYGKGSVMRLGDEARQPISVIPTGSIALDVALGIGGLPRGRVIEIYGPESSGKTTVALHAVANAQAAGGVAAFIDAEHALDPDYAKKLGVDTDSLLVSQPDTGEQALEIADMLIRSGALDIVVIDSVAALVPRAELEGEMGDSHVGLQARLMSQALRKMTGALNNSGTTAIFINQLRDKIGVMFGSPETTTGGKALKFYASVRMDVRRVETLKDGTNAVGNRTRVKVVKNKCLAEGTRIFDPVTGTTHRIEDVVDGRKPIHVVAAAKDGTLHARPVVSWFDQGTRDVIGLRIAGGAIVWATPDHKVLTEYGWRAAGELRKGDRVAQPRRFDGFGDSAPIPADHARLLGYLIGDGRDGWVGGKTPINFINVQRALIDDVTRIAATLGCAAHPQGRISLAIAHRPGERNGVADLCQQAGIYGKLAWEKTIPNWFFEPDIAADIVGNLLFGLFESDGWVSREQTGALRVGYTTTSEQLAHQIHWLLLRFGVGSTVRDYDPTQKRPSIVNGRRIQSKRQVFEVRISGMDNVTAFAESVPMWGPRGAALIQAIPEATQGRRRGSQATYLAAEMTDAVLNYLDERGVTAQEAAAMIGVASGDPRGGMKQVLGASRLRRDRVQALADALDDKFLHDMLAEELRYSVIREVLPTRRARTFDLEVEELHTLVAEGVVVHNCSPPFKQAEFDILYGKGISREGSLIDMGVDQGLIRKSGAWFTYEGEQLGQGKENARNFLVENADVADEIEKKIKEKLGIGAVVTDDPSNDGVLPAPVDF

Compound: O=C(O)c1ccc(NC(S)=NC(NC(=O)c2ccco2)C(Cl)(Cl)Cl)cc1 (stereo unspecified)
- IC50 (Aminopeptidase N): 60.5 µM (active)

Compound: COC(=O)Cc1c(C)c2ccc(O)c(CN3CCCC(C)C3)c2oc1=O (stereo unspecified)
- IC50 (Aminopeptidase N): 30 µM (active)

Compound: Cc1c(O)c(CN2CCCC2)cc2c3c(c(=O)oc12)CCC3
- IC50 (Aminopeptidase N): 42.6 µM (active)

Compound: O=Cc1cc(N=Nc2ccccc2Cl)ccc1O
- EC50 [1]: > 160 µM (inactive)
- CC50 [2]: 7.07 µM (active)
- EC50 [3]: 5.05 µM (active)
- EC50 (cells [4]): 198 µM (active)
- EC50 [5]: > 38 µM (not active)
- EC50 (cells [6]): > 350 µM (not active)
- EC50 (Streptococcus): 6.24 µM (active)
- EC50 [7]: 15 µM (active)

Compound: C[C@H](NC(=O)c1[nH]cnc1C(=O)Nc1ccc(Cl)cc1)C(=O)OC(C)(C)C
- CC50 [8]: 16.7 µM (active)
- IC50 (Protein skinhead-1): > 100 µM (inactive)

Compound: Cc1cc(=O)oc2cc3c(cc12)OCCN3
- IC50 (Aminopeptidase N): 32.8 µM (active)

Compound: Cc1ccc(O)c(Sc2cc(C)ccc2O)c1
- EC50 [7]: 3.76 µM (active)

Compound: Cc1ccc(-c2csc(N(CCCN(C)C)C(=O)c3ccco3)n2)cc1
- EC50 [7]: 2.11 µM (active)
- AC50 [9]: 11.7 µM (active)

Compound: CCC(C)NC(C(=O)Nc1ccc(Cl)c([N+](=O)[O-])c1)c1ccccc1 (stereo unspecified)
- EC50 [7]: 7.5 µM (active)

Compound: Brc1ccc(CNc2ccc3ncccc3c2)cc1
- CC50 [8]: > 40 µM (active)
- AC50 [10]: > 380 µM (inactive)
- EC50 (Protein RecA): > 380 µM (inactive)
